Data reported in ChEMBL document CHEMBL5241054, “Effective anti-aromatase therapy to battle against estrogen-mediated breast cancer: Comparative SAR/QSAR assessment on steroidal aromatase inhibitors” (Eur J Med Chem, 2020).

What follows are compounds tested against T1, Aromatase (Homo sapiens, UniProt P11511).
T1 sequence (P11511 whole entry): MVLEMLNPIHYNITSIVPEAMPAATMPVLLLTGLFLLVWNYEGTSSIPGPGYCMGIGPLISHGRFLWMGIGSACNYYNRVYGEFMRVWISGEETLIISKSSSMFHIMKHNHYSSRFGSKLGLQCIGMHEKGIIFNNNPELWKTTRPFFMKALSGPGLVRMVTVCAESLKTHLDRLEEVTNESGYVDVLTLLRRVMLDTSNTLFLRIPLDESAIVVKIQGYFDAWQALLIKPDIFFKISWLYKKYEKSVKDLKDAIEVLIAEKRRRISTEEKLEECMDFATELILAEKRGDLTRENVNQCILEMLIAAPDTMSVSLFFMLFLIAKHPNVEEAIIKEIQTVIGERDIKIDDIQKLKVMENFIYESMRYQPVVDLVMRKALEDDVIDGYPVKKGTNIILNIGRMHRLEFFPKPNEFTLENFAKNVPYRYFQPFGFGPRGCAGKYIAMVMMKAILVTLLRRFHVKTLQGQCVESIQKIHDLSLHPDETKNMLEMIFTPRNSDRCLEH

| SMILES | IC50 [nM] |
| --- | --- |
| CCCCS[C@@H]1CC2=CC(=O)CC[C@]2(C)[C@H]2CC[C@]3(C)C(=O)CC[C@H]3[C@H]12 | 57 |
| C[C@]12CCC(=O)C=C1C[C@@H](SCc1ccccc1)[C@@H]1[C@@H]2CC[C@]2(C)C(=O)CC[C@@H]12 | 69 |
| C[C@]12CCC(=O)C=C1C[C@@H](SCCc1ccccc1)[C@@H]1[C@@H]2CC[C@]2(C)C(=O)CC[C@@H]12 | 61.9 |
| COc1ccc(CS[C@@H]2CC3=CC(=O)CC[C@]3(C)[C@H]3CC[C@]4(C)C(=O)CC[C@H]4[C@H]23)cc1 | 31 |
| C[C@]12CCC(=O)C=C1C[C@@H](Sc1ccc(N)cc1)[C@@H]1[C@@H]2CC[C@]2(C)C(=O)CC[C@@H]12 | 160 |
| C[C@]12CC[C@@H]3c4ccc(O)c(NC(=O)c5ccncc5)c4CC[C@H]3[C@@H]1CCC2=O | 28600 |
| CCCCCCCC[C@H]1C[C@@H]2[C@H](CC[C@]3(C)C(=O)CC[C@@H]23)[C@@]2(C)CCC(=O)C=C12 | 5110 |
| CCCCC[C@H]1C[C@@H]2[C@H](CC[C@]3(C)C(=O)CC[C@@H]23)[C@@]2(C)CCC(=O)C=C12 | 400 |
| CCCCC[C@@H]1C[C@@H]2[C@H](CC[C@]3(C)C(=O)CC[C@@H]23)[C@@]2(C)CCC(=O)C=C12 | 230 |
| COC1=C[C@@]2(C)C(=CC1=O)CC[C@@H]1[C@@H]2CC[C@]2(C)C(=O)CC[C@@H]12 | 1100 |
| C[C@]12C=C(CCCc3ccccc3)C(=O)C=C1CC[C@@H]1[C@@H]2CC[C@]2(C)C(=O)CC[C@@H]12 | 145 |
| CC[C@@H]1C[C@@H]2[C@H](CC[C@]3(C)C(=O)CC[C@@H]23)[C@@]2(C)C=CC(=O)C=C12 | 54 |
| CCCCCC[C@H]1C[C@@H]2[C@H](CC[C@]3(C)C(=O)CC[C@@H]23)[C@@]2(C)CCC(=O)C=C12 | 1000 |
| C[C@]12CCC(=O)C=C1C=C(c1ccccc1)[C@@H]1[C@@H]2CC[C@]2(C)C(=O)CC[C@@H]12 | 1430 |
| CCCCCC[C@@H]1C[C@@H]2[C@H](CC[C@]3(C)C(=O)CC[C@@H]23)[C@@]2(C)CCC(=O)C=C12 | 430 |
| CCCCCCCC[C@@H]1C[C@@H]2[C@H](CC[C@]3(C)C(=O)CC[C@@H]23)[C@@]2(C)CCC(=O)C=C12 | 1800 |
| CCCCOC1=C[C@@]2(C)C(=CC1=O)CC[C@@H]1[C@@H]2CC[C@]2(C)C(=O)CC[C@@H]12 | 29600 |
| CCCC[C@H]1C[C@@H]2[C@H](CC[C@]3(C)C(=O)CC[C@@H]23)[C@@]2(C)C=CC(=O)C=C12 | 200 |
| CCC[C@H]1C[C@@H]2[C@H](CC[C@]3(C)C(=O)CC[C@@H]23)[C@@]2(C)C=CC(=O)C=C12 | 270 |
| C[C@]12CC[C@@H]3c4ccc(O)c(NC(=O)c5cccnc5)c4CC[C@H]3[C@@H]1CCC2=O | 95700 |
| C[C@]12C[C@@H](CCc3ccccc3)C(=O)C=C1CC[C@@H]1[C@@H]2CC[C@]2(C)C(=O)CC[C@@H]12 | 126000 |
| CCC[C@@H]1C[C@@]2(C)C(=CC1=O)CC[C@@H]1[C@@H]2CC[C@]2(C)C(=O)CC[C@@H]12 | 1460 |
| CCCCC1=C[C@@]2(C)C(=CC1=O)CC[C@@H]1[C@@H]2CC[C@]2(C)C(=O)CC[C@@H]12 | 1840 |
| Cc1ccc(CC[C@@H]2C[C@@]3(C)C(=CC2=O)CC[C@@H]2[C@@H]3CC[C@]3(C)C(=O)CC[C@@H]23)cc1 | 38800 |
| CCCCC[C@H]1C[C@@H]2[C@H](CC[C@]3(C)C(=O)CC[C@@H]23)[C@@]2(C)C=CC(=O)C=C12 | 140 |
| C[C@]12C[C@@H](CCCc3ccccc3)C(=O)C=C1CC[C@@H]1[C@@H]2CC[C@]2(C)C(=O)CC[C@@H]12 | 50200 |

| SMILES | IC50 [nM] |
| --- | --- |
| CCCCCCC1=C[C@@]2(C)C(=CC1=O)CC[C@@H]1[C@@H]2CC[C@]2(C)C(=O)CC[C@@H]12 | 298 |
| Cc1ccc(CCC2=C[C@@]3(C)C(=CC2=O)CC[C@@H]2[C@@H]3CC[C@]3(C)C(=O)CC[C@@H]23)cc1 | 6350 |
| CCCC[C@@H]1C[C@@]2(C)C(=CC1=O)CC[C@@H]1[C@@H]2CC[C@]2(C)C(=O)CC[C@@H]12 | 1930 |
| C[C@]12C=C(CCCCc3ccccc3)C(=O)C=C1CC[C@@H]1[C@@H]2CC[C@]2(C)C(=O)CC[C@@H]12 | 34200 |
| CCCCCC[C@H]1C[C@@H]2[C@H](CC[C@]3(C)C(=O)CC[C@@H]23)[C@@]2(C)C=CC(=O)C=C12 | 280 |
| CCCCCC[C@@H]1C[C@@]2(C)C(=CC1=O)CC[C@@H]1[C@@H]2CC[C@]2(C)C(=O)CC[C@@H]12 | 10400 |
| C[C@]12C=C(Cc3ccccc3)C(=O)C=C1CC[C@@H]1[C@@H]2CC[C@]2(C)C(=O)CC[C@@H]12 | 86500 |
| C[C@]12C[C@@H](Cc3ccccc3)C(=O)C=C1CC[C@@H]1[C@@H]2CC[C@]2(C)C(=O)CC[C@@H]12 | 466000 |
| CCCCCCCC1=C[C@@]2(C)C(=CC1=O)CC[C@@H]1[C@@H]2CC[C@]2(C)C(=O)CC[C@@H]12 | 605 |
| CCOC1=C[C@@]2(C)C(=CC1=O)CC[C@@H]1[C@@H]2CC[C@]2(C)C(=O)CC[C@@H]12 | 17600 |
| C[C@]12CC[C@@H]3c4cc(NC(=O)c5cccnc5)c(O)cc4CC[C@H]3[C@@H]1CCC2=O | 75300 |
| CC[C@H]1C[C@@H]2[C@H](CC[C@]3(C)C(=O)CC[C@@H]23)[C@@]2(C)C=CC(=O)C=C12 | 250 |
| C[C@]12CC[C@@H]3c4cc(NC(=O)c5ccccn5)c(O)cc4CC[C@H]3[C@@H]1CCC2=O | 209000 |
| C[C@]12C=C(CCc3ccccc3)C(=O)C=C1CC[C@@H]1[C@@H]2CC[C@]2(C)C(=O)CC[C@@H]12 | 2570 |
| CCCCCCC[C@H]1C[C@@H]2[C@H](CC[C@]3(C)C(=O)CC[C@@H]23)[C@@]2(C)C=CC(=O)C=C12 | 250 |
| C[C@]12C=C(CCc3ccc(C(F)(F)F)cc3)C(=O)C=C1CC[C@@H]1[C@@H]2CC[C@]2(C)C(=O)CC[C@@H]12 | 34100 |
| C[C@]12C[C@@H](CCc3ccc(C(F)(F)F)cc3)C(=O)C=C1CC[C@@H]1[C@@H]2CC[C@]2(C)C(=O)CC[C@@H]12 | 46600 |
| CCCCC[C@@H]1C[C@@]2(C)C(=CC1=O)CC[C@@H]1[C@@H]2CC[C@]2(C)C(=O)CC[C@@H]12 | 1280 |
| CCCC1=C[C@@]2(C)C(=CC1=O)CC[C@@H]1[C@@H]2CC[C@]2(C)C(=O)CC[C@@H]12 | 1750 |
| C[C@]12CC[C@@H]3c4ccc(OC(=O)c5ccno5)cc4CC[C@H]3[C@@H]1CCC2=O | 244000 |
| CCC1=C[C@@]2(C)C(=CC1=O)CC[C@@H]1[C@@H]2CC[C@]2(C)C(=O)CC[C@@H]12 | 959 |
| C[C@]12CC[C@@H]3c4ccc(O)c(NC(=O)c5ccccn5)c4CC[C@H]3[C@@H]1CCC2=O | 203000 |
| CCCCCC1=C[C@@]2(C)C(=CC1=O)CC[C@@H]1[C@@H]2CC[C@]2(C)C(=O)CC[C@@H]12 | 743 |
| C[C@]12C=C(Br)C(=O)C=C1CC[C@@H]1[C@@H]2CC[C@]2(C)C(=O)CC[C@@H]12 | 1840 |
| C[C@]12C[C@@H](CCCCc3ccccc3)C(=O)C=C1CC[C@@H]1[C@@H]2CC[C@]2(C)C(=O)CC[C@@H]12 | 222000 |
